Patent publication US11214803B2, “Modulators of YAP1 expression” (Ionis Pharmaceuticals, Inc., priority 2019, dated 2022)
Strand notation (5' to 3'): a small letter for the sugar, then the base; units joined by * are phosphorothioate-linked, units joined directly phosphodiester-linked; [ ] holds rarer units or linkages, { } end groups; capitals alone tell only the bases. k = constrained ethyl (cEt); [5mC] = 5-methylcytosine; d = 2'-deoxy (DNA)

Experiments:
[1] = tested on: Yap1 mRNA; test: Antisense inhibition of human Yap1 in A-431 cells by cEt gapmers, single dose (Example 2, RTS4814); format: cell-based; details: 3-10-3 cEt gapmers targeting SEQ ID NO.: 1, and 2
How it was run: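 Single-dose knockdown screen of 3-10-3 cEt phosphorothioate gapmers at 2,000 nM added by free uptake to A-431 cells. After roughly 48 h, RNA was isolated and Yap1 transcript measured by RT-qPCR, with results given as % UTC.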

[2] = tested on: Yap1 mRNA; test: Dose-dependent inhibition of human Yap1 in A-431 cells (Example 8, 10,000 cells per well, RTS4814); format: cell-based; details: free uptake, approximately 48 hours, RTS4814; for Yap1 mRNA, % UTC: A-431 cells, 10,000 cells per well; for IC50: A-431 cells, linear regression on log/linear plot
How it was run: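 A-431 cells (10,000/well) dosed with modified oligonucleotides by free uptake; Yap1 mRNA measured ~48 h later with primer-probe set RTS4814, normalized to total RNA (RIBOGREEN). Values are % of untreated control; IC50 from linear regression on log/linear plot.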

[3] = Yap1 mRNA as percent of untreated control, A-431 cells, Table 31
[4] = Yap1 mRNA as percent of untreated control, A-431 cells, Table 30
[5] = Table 32, Yap1 mRNA, percent of untreated control
[6] = Table 33, Yap1 mRNA, percent of untreated control

Substance | YAP1 (% UTC) [1, 3] [% UTC] | Yap1 mRNA, % UTC ([2]; 31.3 nM) [% UTC] | Yap1 mRNA, % UTC ([2]; 125.0 nM) [% UTC] | Yap1 mRNA, % UTC ([2]; 500.0 nM) [% UTC] | Yap1 mRNA, % UTC ([2]; 2000.00 nM) [% UTC] | IC50 [2] [nM] | YAP1 (% UTC) [1, 4] [% UTC] | YAP1 (% UTC) [1, 5] [% UTC] | YAP1 (% UTC) [1, 6] [% UTC]
1075249 (kA*kT*kT*dA*d[5mC]*dG*dA*dT*dT*dA*dG*dA*dT*k[5mC]*kA*kG; antisense) [compound 1075249] | 5 | 77 | 37 | 16 | 8 | 100 |  |  | 
1074417 (kT*k[5mC]*kT*dT*dT*dA*dG*dA*dG*d[5mC]*d[5mC]*dA*dA*k[5mC]*kT*kG; antisense) [compound 1074417] | 2 | 68 | 26 | 7 | 3 | 100 |  |  | 
1075824 (kG*kT*kA*dT*dT*dA*dG*dA*dG*dG*dT*dT*d[5mC]*k[5mC]*kA*kG; antisense) [compound 1075824] |  | 33 | 10 | 5 | 3 | < 20 | 3 |  | 
1074737 (kT*kT*k[5mC]*dA*dG*dG*dT*d[5mC]*dA*dG*dT*dA*d[5mC]*kA*kG*kA; antisense) [compound 1074737] | 7 | 50 | 21 | 8 | 6 | < 20 |  |  | 
1075088 (kA*kT*kT*dT*dA*dT*dA*dG*dT*d[5mC]*dA*dG*dG*kT*kT*k[5mC]; antisense) [compound 1075088] |  | 37 | 9 | 4 | 2 | < 20 | 2 |  | 
1076466 (kA*kT*kT*dT*dA*dG*dA*dG*d[5mC]*dT*dT*dA*dA*kG*kG*kA; antisense) [compound 1076466] |  | 43 | 18 | 8 | 6 | < 20 |  | 5 | 
1076115 (k[5mC]*kA*kT*dT*dA*dG*dT*dA*dA*dG*d[5mC]*dT*dG*kA*kG*kG; antisense) [compound 1076115] |  | 47 | 17 | 9 | 6 | < 20 |  |  | 7
1076530 (kA*kG*kT*dA*dT*dA*dA*dA*dG*d[5mC]*dA*dG*dG*kG*k[5mC]*kA; antisense) [compound 1076530] |  | 53 | 26 | 11 | 7 | < 20 |  | 5 | 
1076464 (k[5mC]*kA*kT*dA*dT*dA*d[5mC]*dA*dA*dT*dT*d[5mC]*dT*kG*k[5mC]*k[5mC]; antisense) [compound 1076464] |  | 36 | 10 | 3 | 2 | < 20 | 2 |  | 
1075155 (kT*k[5mC]*kA*dT*dT*dA*dT*dA*dA*dT*dG*dG*dG*kA*kG*kG; antisense) [compound 1075155] |  | 51 | 15 | 6 | 4 | < 20 |  |  | 5
1076370 (antisense kG*kA*kT*dT*dA*dT*dT*d[5mC]*dG*dG*dT*dA*dT*kT*kT*kT) [compound 1076370] |  | 46 | 12 | 4 | 2 | < 20 |  | 2 | 
1074418 (kT*kT*k[5mC]*dT*dT*dT*dA*dG*dA*dG*d[5mC]*d[5mC]*dA*kA*k[5mC]*kT; antisense) [compound 1074418] |  | 55 | 26 | 9 | 4 | < 20 |  | 4 | 
1074290 (antisense k[5mC]*kT*kG*dA*d[5mC]*dT*dG*dA*dT*dT*d[5mC]*dT*d[5mC]*kT*kG*kG) [compound 1074290] |  | 49 | 17 | 9 | 7 | < 20 |  | 5 | 
